Patent publication US12171777B2, “Methods of making a cyclic dinucleotide” (TAKEDA PHARMACEUTICAL COMPANY LIMITED, priority 2016, dated 2024)
Counter-ions that a name gives are not always drawn.

Columns and labels:
B16F10 mouse tumor cells = assay: Anti-tumor effect in B16F10 syngeneic mice model; type: in vivo; conditions: C57BL/6 mice; intravenous q3dx3; Ex3a 30 mg/kg, Ex14 1.0 mg/kg
Method: (§1) Ex14 and Ex3a were tested in syngeneic tumor models in mice. […] See FIG. 8 and FIG. 9 for the anti-tumor effect colon carcinoma CT-26 syngeneic mice model, and FIG. 10 and FIG. 11 for the anti-tumor effect in the […] B16F10 syngeneic mice model.
(§2) 8×10^4 B16F10 and 2×10^5 CT-26 mouse tumor cells were subcutaneously implanted in the flank of female C57BL/6 (B16F10) and Balb/C (CT-26) mice (n=7 per group). Vehicle (1×PBS), compound Ex3a (30 mg/kg) or Ex14 (1.0 mg/kg) were intravenously administered (final volume of 100 μL) to tumor-bearing mice once the tumor volume has reached 100 mm^3 (Day 0). Vehicle, Ex3a or Ex14 were given every 3 days for a total of 3 doses (q3dx3). Tumor and body weight measurements were taken three times per week using vernier calipers and mettler scale, respectively. Tumor volumes were determined by multiplying the square of the width (‘W’), measured along the short axis of the tumor, by one-half the length (‘L’) measured along the […]

CT-26 mouse tumor cells = assay: Anti-tumor effect in CT-26 syngeneic mice model; type: in vivo; conditions: Balb/C mice; intravenous q3dx3; Ex3a 30 mg/kg, Ex14 1.0 mg/kg
Method: as §1, §2

[1] = Human plasma stability assay; type: in vitro ADME; conditions: elimination rate constant k; heparinized human plasma, 37° C., 0-24 hours
Method: The compound was incubated in heparinized human plasma at 37° C. for 0, 1, 2, 4, 8 and 24 hours, and the change in compound concentration was measured by LC/MS/MS method. The elimination rate constant (=k(/h)) was calculated based on the fitted curve assuming the exponential decrease of concentration as follows; concentration at time x=initial concentration*exp(−k*x).

[2] = target: WT STING (human wild-type TMEM173 (H232R)) (Homo sapiens (Human), UniProt Q86WV6, H232R); assay: Reporter Gene Assay (2): ISRE NanoLuc reporter in STING-transfected 293T cells, with digitonin; type: cell-based; conditions: HEK-293T, 2′,3′-cGAMP (30 μM) = 100%, solvent = 0%, read-out: activity level against WT STING of test compound (30 μM)
Chain of WT STING (human wild-type TMEM173 (H232R)) (Q86WV6 whole entry H232R): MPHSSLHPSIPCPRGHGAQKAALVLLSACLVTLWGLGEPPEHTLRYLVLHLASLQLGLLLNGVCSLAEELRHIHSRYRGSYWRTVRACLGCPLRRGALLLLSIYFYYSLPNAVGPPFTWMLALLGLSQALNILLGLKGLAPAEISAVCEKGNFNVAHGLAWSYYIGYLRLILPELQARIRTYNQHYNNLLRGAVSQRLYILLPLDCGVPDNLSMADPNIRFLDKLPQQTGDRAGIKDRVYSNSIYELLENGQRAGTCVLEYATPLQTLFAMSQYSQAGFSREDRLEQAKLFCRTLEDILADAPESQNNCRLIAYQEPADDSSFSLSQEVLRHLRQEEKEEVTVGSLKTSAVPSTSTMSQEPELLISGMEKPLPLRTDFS
Method: The culture solution was removed, and the test compound diluted with assay buffer (50 mM HEPES pH 7.0, 100 mM KCl, 3 mM MgCl2, 85 mM Sucrose, 0.1 mM DTT, 0.2% BSA, 1 mM ATP, 0.1 mM GTP, 10 μg/ml Digitonin) was added thereto by 15 μL/well. The cells were cultured at 37° C. under 5% CO2 condition for 30 min, and the assay buffer was removed. Dulbecco's Modified Eagle's Medium (DMEM) (Wako Pure Chemical Industries, Ltd.) containing 10% fetal bovine serum was added thereto by 20 μL/well, and the cells were cultured at 37° C. under 5°%° CO2 condition for 4 hr. Luminescence signals derived from firefly luciferase and NanoLuc Luciferase were each measured using EnVision (PerkinElmer, Waltham, MA, US) according to Nano-Glo Dual-Luciferase Reporter Assay System (Promega, Fitchburg, WI, US) protocol. The ratio of the count of NanoLuc Luciferase divided by the count of firefly luciferase was used for calculation. The activity level of each test compound was calculated when the ratio in the cells treated with 2′,3′-cGAMP (30 μM) was considered as 100%, and the ratio in the cells treated with the solvent was considered as 0%.

| Compound | anti-tumor effect, B16F10 syngeneic mice model (B16F10 mouse tumor cells) | anti-tumor effect, CT-26 syngeneic mice model (CT-26 mouse tumor cells) | Human plasma stability [1] [h⁻¹] | activation at 30 µM [2] [%] |
| --- | --- | --- | --- | --- |
| Nc1ncnc2c1ncn2[C@@H]1O[C@@H]2COP(=O)(O)O[C@@H]3[C@H](O)[C@@H](COP(=O)(S)O[C@H]2[C@H]1F)O[C@H]3n1cc(F)c2c(=O)[nH]cnc21 (stereo partly drawn) [Ex3a, disodium (5R,7R,8R,12aR,14R,15R,15aR,16R)-14-(6-amino-9H-purin-9-yl)-15-fluoro-7-(5-fluoro-4-oxo-3,4-dihydro-7H-pyrrolo[2,3-d]pyrimidin-7-yl)-16-hydroxy-2-sulfidooctahydro-12H-5,8-methanofuro[3,2-1][1,3,6,9,11,2,10]pentaoxadiphosphacyclotetradecin-10-olate 2,10-dioxide] | anti-tumor effects were observed | anti-tumor effects were observed | 0.58 | – |
| Nc1ncnc2c1ncn2[C@@H]1O[C@@H]2COP(=O)(S)O[C@@H]3[C@H](O)[C@@H](COP(=O)(S)O[C@H]2[C@H]1O)O[C@H]3n1cc(F)c2c(=O)[nH]cnc21 (stereo partly drawn) [Example 5, 7-((5R,7R,8R,12aR,14R,15R,15aS,16R)-14-(6-amino-9H-purin-9-yl)-15,16-dihydroxy-2,10-dioxido-2,10-disulfanyloctahydro-12H-5,8-methanofuro[3,2-1][1,3,6,9,11,2,10]pentaoxadiphosphacyclotetradecin-7-yl)-5-fluoro-3,7-dihydro-4H-pyrrolo[2,3-d]pyrimidin-4-one di-triethylamine salt (Optical Isomer)] | – | – | <0.01 | 107 |
| Nc1ncnc2c1ncn2[C@@H]1O[C@@H]2COP(=O)(S)O[C@@H]3[C@H](O)[C@@H](COP(=O)(S)O[C@H]2[C@H]1F)O[C@H]3n1cc(F)c2c(=O)[nH]cnc21 (stereo partly drawn) [Example 14, 7-((2R,5R,7R,8R,10R,12aR,14R,15R,15aR,16R)-14-(6-amino-9H-purin-9-yl)-15-fluoro-16-hydroxy-2,10-dioxido-2,10-disulfanyloctahydro-12H-5,8-methanofuro[3,2-1][1,3,6,9,11,2,10]pentaoxadiphosphacyclotetradecin-7-yl)-5-fluoro-3,7-dihydro-4H-pyrrolo[2,3-d]pyrimidin-4-one di sodium salt] | anti-tumor effects were observed | anti-tumor effects were observed | <0.01 | – |
